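A five-concentration, 48-hour dose response in 96-well plates underlies each endpoint, interpolated linearly between surrounding concentrations. At the GI50, growth is halved.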 Activity calls are given as the source filed them. No stated cut-off is given here; in the data, active = GI50 up to about 1.1 µM and inactive = higher.
Legend:
Assay in all cases: DTP human tumour cell line panel, 48 h
[1] = test system: A549
[2] = test system: COLO 205
[3] = test system: HCC 2998
[4] = test system: HOP-62
[5] = test system: K562
[6] = test system: KM12
[7] = test system: LOX IMVI
[8] = test system: MCF7
[9] = test system: NCI-H226
[10] = test system: NCI/ADR-RES
[11] = test system: OVCAR-3
[12] = test system: PC-3
[13] = test system: RPMI-8226
[14] = test system: SF-268
[15] = test system: SK-OV-3
[16] = test system: SN12C
[17] = test system: SW-620
[18] = test system: TK-10
[19] = test system: U-251
[20] = test system: UO-31

Measured: GI50

C/C=C\C(CC(=O)OC)CC(=O)N(CCC1CN(S(=O)(=O)C(F)(F)F)c2ccccc21)Cc1ccc(OC)cc1OC (stereo not given)
inactive: [1] 77.4 µM | [2] > 100 µM | [3] > 100 µM | [4] > 100 µM | [5] 96.6 µM | [6] 45.1 µM | [7] > 100 µM | [8] > 100 µM | [9] > 100 µM | [10] > 100 µM | [11] > 100 µM | [12] 63 µM | [13] 61.7 µM | [14] > 100 µM | [15] > 100 µM | [16] > 100 µM | [17] > 100 µM | [18] > 100 µM | [19] > 100 µM | [20] > 100 µM

CCOC(=O)[C@@H]1C2C(=C[C@H]3[C@H]1C(=O)N1CCCC[C@H]31)CCCN2C(=O)OCc1ccccc1 (stereo not given in full)
inactive: [1] 36.1 µM | [2] 23.9 µM | [3] 15.1 µM | [4] 42.5 µM | [5] 30.8 µM | [6] 36.2 µM | [7] 33.3 µM | [8] 29.5 µM | [9] 70.5 µM | [10] 26.2 µM | [11] 30.1 µM | [12] 28.1 µM | [13] 20.2 µM | [14] 23.3 µM | [15] 94.8 µM | [16] 47.5 µM | [17] 52.2 µM | [18] 75.9 µM | [19] 43.6 µM | [20] 32.8 µM

CN(C)CCNC(=O)Cn1ccc(=O)c2cc([N+](=O)[O-])ccc21
inactive: [1] > 100 µM | [2] > 100 µM | [3] > 100 µM | [4] > 100 µM | [5] > 100 µM | [6] > 100 µM | [7] > 100 µM | [8] > 100 µM | [9] > 100 µM | [10] > 100 µM | [11] > 100 µM | [12] > 100 µM | [13] > 100 µM | [14] > 100 µM | [15] > 100 µM | [16] > 100 µM | [17] > 100 µM | [18] > 100 µM | [19] > 100 µM | [20] > 100 µM

O=C1/C(=C\c2cccc(Oc3ccccc3)c2)SC(c2ccccc2)N1c1ccc(Cl)cc1 (stereo not given)
inactive: [1] > 40.6 µM | [2] 11.2 µM | [3] 87.5 µM | [4] > 57.1 µM | [5] 2.64 µM | [6] 12.6 µM | [7] 15.8 µM | [8] 16.3 µM | [9] > 100 µM | [10] 21.4 µM | [11] 41.4 µM | [12] 63.2 µM | [13] 5.78 µM | [14] 18.2 µM | [15] 14.1 µM | [16] 26.7 µM | [17] 27.7 µM | [18] > 64.9 µM | [19] 50.5 µM | [20] 16 µM

COc1ccc(O[C@H](CO)C[C@@H]2COC(C)(C)O2)cc1
inactive: [1] > 100 µM | [2] > 100 µM | [3] > 100 µM | [4] > 100 µM | [5] > 100 µM | [6] > 100 µM | [7] > 100 µM | [8] > 100 µM | [9] > 100 µM | [10] > 100 µM | [11] > 100 µM | [12] > 100 µM | [13] > 100 µM | [14] > 100 µM | [15] > 100 µM | [16] > 100 µM | [17] > 100 µM | [18] > 100 µM | [19] > 100 µM | [20] > 100 µM

COc1cccc(/C=C\c2ccnc3ccccc23)c1
inactive: [1] > 10 µM | [2] > 10 µM | [3] > 10 µM | [4] > 10 µM | [5] > 10 µM | [6] > 10 µM | [7] 9.51 µM | [8] > 10 µM | [9] > 10 µM | [10] > 10 µM | [11] > 10 µM | [12] > 10 µM | [13] > 10 µM | [14] > 10 µM | [15] > 10 µM | [16] > 10 µM | [17] > 10 µM | [18] > 10 µM | [19] > 10 µM | [20] > 10 µM

CC(C)C/N=C(\N)N=C(N)N
inactive: [1] > 100 µM | [2] > 100 µM | [3] > 100 µM | [4] > 100 µM | [5] > 100 µM | [6] > 100 µM | [7] > 100 µM | [8] > 100 µM | [9] > 100 µM | [10] > 100 µM | [11] > 100 µM | [12] > 100 µM | [13] > 100 µM | [14] > 100 µM | [15] > 100 µM | [16] > 100 µM | [17] > 100 µM | [18] > 100 µM | [19] > 100 µM | [20] > 100 µM

From ChEMBL document CHEMBL1201862, “PubChem BioAssay data set” (2004)
